Test results published in US20140235542A1, “MODULAR, BIOACTIVE PEPTIDES FOR BINDING NATIVE BONE AND IMPROVING BONE GRAFT OSTEOINDUCTIVITY” (WISCONSIN ALUMNI RESEARCH FOUNDATION, priority 2013, published 2014).
Square brackets hold non-standard residues; d marks the D form. Ends that are not written are not given here. Gla = N[C@@H](CC(C(=O)O)C(=O)O)C(=O)O

What was measured:
[1] = Binding of 5(6)-FAM-conjugated modular peptides to HA-coated PLG films; details: 4 hr, 37° C.
Protocol: Poly (lactide-coglycolide) (PLG) films were prepared via a solvent casting process in which PLG (85:15) pellets were dissolved in chloroform (50 mg/ml), added to a PTFE dish, and dried for 2 days. The films were further dried at 50-55° C. for 4 hr to remove residual solvent and samples were cooled to room temperature. Square films (1 cm^2) were manually cut out of the resulting PLG film sheets. A “bone-like” HA-based material layer was grown on the PLG films using a direct deposition technique by biomimetic mineralization in modified simulated body fluid (mSBF).
To measure the binding efficiency of modular peptides to the HA-coated PLG films and to gain preliminary insight into the properties that influence modular peptide immobilization, 1 cm^2 HA-coated PLG films was first exposed to PBS solutions containing 500 μg (1 mg/ml) of 5(6) FAM-conjugated eBMP-2, eBGu1, eBGu3, eBGa1, or eBGa3 modular peptide solution (See Table 1 for definitions of these abbreviations). The films were incubated in peptide solutions with constant agitation for 4 hr at 37° C., and the amount of free peptide remaining was determined by measuring the fluorescence emission of the solution (excitation: 494 nm; emission 519 nm) using a Synergy HT Multi-Detection Microplate Reader (BioTek, Winooski, Vt.), and comparing this emission to standard samples with known concentrations of 5(6)-FAM. To further characterize surface immobilization of the peptide with the highest binding efficiency—the eBGa3 peptide-1 cm^2 HA-coated films were incubated in various concentrations (50-750 nM) of 5(6)-FAM-conjugated eBGa3 peptide for 4 hr with constant agitation at 37° C. The amount of peptide bound to HA-coated film was again determined by fluorescence analysis, as described above.

[2] = Release kinetics of modular peptides from HA-coated film; details: after 70 days
Protocol: To quantify release kinetics of 5(6) FAM-conjugated modular peptides from HA-coated film, the films were first incubated in solutions containing 250 μM (˜500 μg) of each peptide (eBGu1, eBGu3, eBGa1, or eBGa3) to allow for binding (as described above), then incubated in 500 μl of PBS buffer at 37° C. with constant agitation for 5 days (eBGu1 and eBGu3 peptides) or 10 weeks (eBGa1 and eBGa3 peptides), respectively. Whole buffer solutions were changed at indicated time points and the amount of peptide released from the HA-coated film was determined via fluorescence analysis and comparison with standards containing known amounts of 5(6)-FAM. The fluorescent images of fluorescently-labeled peptides bound to HA-coated films were obtained using an Olympus IX51 fluorescence microscope (Olympus, Center Valley, Pa.).

[3] = Binding of rhodamine-labeled peptide to cortical bone; parameters: species or system sheep
Protocol: (§1) The native bone used were harvested from sheep tibia and bovine sternum. Cortical (compact) bone slices were collected from sheep tibia with periosteum removed, and trabecular (cancellous, spongy) bone cores were drilled out from bovine sternum under sterile conditions.
The peptide binding to native bones was tested in three different experiments. In the first experiment, the cortical bone slices were incubated in modular peptide solution (0.5 mL, PBS) with concentrations of 50, 100, 200 and 300 μg/mL. The incubation was continued in a static condition for a period of 0.5, 1, 2 and 3 hours. For another experiment, the trabecular bone cores were placed in the chamber of bone bioreactor where the peptide solution prepared in DMEM (100 μg/mL, 6.5 mL) was continuously circulated through the chamber for a time period of 2, 4, 6, 8 and 10 hours. In the last experiment, mBMP was bound in a spatially controlled manner by dip-coating, spotting or writing with mBMP solution on native bone tissues. Following each experiment, the bones were rinsed with PBS to remove unbound peptide and their fluorescence images were captured using a Typhoon fluorescence scanner (GE healthcare) or a Nikon Eclipse Ti inverted microscope. To quantify the fluorescence intensity, the images were converted into 8-bit using ImageJ to present the intensity level of each pixel in the range of 0 to 255. The mean pixel intensity of a selected region of interest was considered to be proportional to the amount of peptide bound.
To examine mBMP binding to cortical bone without periosteum (ca. 4 mm×7 mm×1.5 mm) from the shaft of sheep tibia, the bone tissue was incubated in mBMP solution prepared in phosphate buffered saline (PBS). The binding of mBMP was concentration-dependent for each incubation time tested (FIGS. 12 and 13A). The quantity of mBMP binding was proportional to the solution concentration, which was clearly observed through all concentrations at 0.5 hour. However, this dependence was not apparent at higher concentrations at later time points. […] The insignificant dependence on the incubation time is likely attributed to the rapid binding of mBMP to native bone tissue.

[4] = Binding of rhodamine-labeled peptide to living trabecular bone cores in a bone bioreactor; parameters: species or system bovine; details: 100 μg/mL in DMEM circulated, 2-10 hours
Protocol: as §1
The peptide binding to native bones was tested in three different experiments. In the first experiment, the cortical bone slices were incubated in modular peptide solution (0.5 mL, PBS) with concentrations of 50, 100, 200 and 300 μg/mL. The incubation was continued in a static condition for a period of 0.5, 1, 2 and 3 hours. […] Following each experiment, the bones were rinsed with PBS to remove unbound peptide and their fluorescence images were captured using a Typhoon fluorescence scanner (GE healthcare) or a Nikon Eclipse Ti inverted microscope. To quantify the fluorescence intensity, the images were converted into 8-bit using ImageJ to present the intensity level of each pixel in the range of 0 to 255. […]
mBMP binding to living trabecular bone cores (1 cm in diameter and 0.5 cm in thickness) harvested from bovine sternum was assessed. […] After incubating for various time periods, the binding was measured in terms of fluorescence intensity from rhodamine labeled mBMP. […]

## KIPKASSVPTELSAISTLYLAAAAγEPRRγEVAγEL (KIPKASSVPTELSAISTLYLAAAA[Gla]PRR[Gla]VA[Gla]L-NH2; N-terminus assumed; SMILES CC[C@H](C)[C@H](NC(=O)[C@H](C)NC(=O)[C@H](CO)NC(=O)[C@H](CC(C)C)NC(=O)[C@H](CCC(=O)O)NC(=O)[C@@H](NC(=O)[C@@H]1CCCN1C(=O)[C@@H](NC(=O)[C@H](CO)NC(=O)[C@H](CO)NC(=O)[C@H](C)NC(=O)[C@H](CCCCN)NC(=O)[C@@H]1CCCN1C(=O)[C@@H](NC(=O)[C@@H](N)CCCCN)[C@@H](C)CC)C(C)C)[C@@H](C)O)C(=O)N[C@@H](CO)C(=O)N[C@H](C(=O)N[C@@H](CC(C)C)C(=O)N[C@@H](Cc1ccc(O)cc1)C(=O)N[C@@H](CC(C)C)C(=O)N[C@@H](C)C(=O)N[C@@H](C)C(=O)N[C@@H](C)C(=O)N[C@@H](C)C(=O)N[C@@H](CC(C(=O)O)C(=O)O)C(=O)N1CCC[C@H]1C(=O)N[C@@H](CCCNC(=N)N)C(=O)N[C@@H](CCCNC(=N)N)C(=O)N[C@@H](CC(C(=O)O)C(=O)O)C(=O)N[C@H](C(=O)N[C@@H](C)C(=O)N[C@@H](CC(C(=O)O)C(=O)O)C(=O)N[C@@H](CC(C)C)C(N)=O)C(C)C)[C@@H](C)O) [eBGa3]
[1]; 500 μg (1 mg/ml) 5(6)-FAM-conjugated peptide in PBS, constant agitation
  binding efficiency on the HA-coated PLG films: 55.9±2.2%
[1]; HA-coated film
  peptide amount at which bound amount reached saturation: ~300 µg
  peptide concentration at which bound amount reached saturation: approximately 150 μM
[2]
  initially bound peptide remaining bound: ~85%
[2]; PBS, 37° C.
  peptide released from HA-coated films: 15.7±0.6%
[3]; 50-300 μg/mL in PBS, 0.5-3 hours
  dependence of binding to cortical bone on concentration and incubation time: concentration-dependent
[3]; bone piece dip-coated in peptide solution
  binding to bone surface after dip-coating: significant amount of mBMP was found to bind
[3]; rhodamine-labeled peptide, cortical bone
  fluorescence intensity of treated bone compared with rhodamine-treated group: higher fluorescence intensity
[4]
  incubation time at which binding reached a plateau: 4 h
